What was measured:
[1] = Estimated HCQ concentration in alveolar fluid (oral tablets, inhalation); set-up: species or system human
Experimental: The HCQ molecules in the plasma can penetrate capillaries outside the alveolar membrane to reach the alveolar lining fluid (“ALF”).
A similar analysis was performed for HCQ administered by inhalation.

[2] = set-up: species or system mice; details: mouse, in vivo, 10 min
Experimental: Mice can breathe the aerosol of drug products. A breathing tank is used for mice to breathe the aerosol of the drug product, such as HCQ. The drug product is administered through the specially designed stainless steel breathing tank 1800, for example as shown in FIG. 18.
The exposure tank size is designed such that the total breathing volume of all eight mice during a 10-minute breathing treatment (1.8 L) is less than 10% of the tank size (21.5 L). The internal wall of the tank is electrically polished to minimize its adsorption of the study drug. Eight mice were mounted to the tank with four mice on each side using small animal restraints. At the start of each treatment session, an effective amount of the drug was administered into pre-cleaned tank. A stirring fan installed inside the tank was set to promote circulation of the pharmaceutical agent. Specifically, the fan was set at 400 RPM in this study and turned on before the pharmaceutical agent was administered. Thirty seconds after the last spray (t=0 minute), eight mice were mounted to the inhalation chamber to breathe the air from inside the breathing tank for 10 minutes, and then were taken off the breathing tank. Samples from the mice were taken, starting immediately after removal from the tank, to perform pharmacokinetic studies. […]

[3] = In-line Cascade Impactor (Andersen) evaluation, MDI actuator through elbow connection and ventilator tubing; assay type: physicochemical; set-up: Delivered <1.1 mcm / Delivered <4.7 mcm: unit not given here; details: 5% EtOH; for Delivered <4.7 mcm: Plate 3~5
Experimental: An example of a ventilator device, for example ventilator device 1700A, was tested and compared to a self-administrable, handheld MDI to determine the target site delivery efficiency in the ventilator circuit as compared to the MDI delivery efficiency without the ventilator circuit (e.g. no elbow connector or ventilator tubing).
Prime HCQ valve by discharging a predetermined number of actuations to waste. Discharge 10 actuations with actuator H004B-a into the cascade impaction sampling apparatus through an elbow connection w/inner channel and an in-line tubing (55 cm long).
Prime HCQ valve by discharging a predetermined number of actuations to waste. Discharge 10 actuations with actuator H004B-c into the cascade impaction sampling apparatus through an elbow connection with an inner channel and an in-line tubing (55 cm long).
Prime HCQ valve by discharging a predetermined number of actuations to waste. […]

[4] = Cascade Impactor (Andersen) test, MDI actuator for stand-alone (handheld) use; assay type: physicochemical
Excerpt: The particle size of an inhalation drug may be measured by an instrument called a Cascade Impactor, which consists of multiple discs. The size of the discs is graduated to properly determine the size of the particulate matter at various stages of the Cascade Impactor, which each represent the drug delivery to different portions of the entire respiratory tract. The Cascade Impactor collects samples of the drug in a graduated manner on each disc such that the average particle size of the collected drugs can be measured for each stage.
As discussed above, the particle size of an inhalation drug, namely the API, can be measured by a Cascade Impactor (Westech Instruments), which consists of multiple stages (0-7). The particle sizes at each stage are listed in Table 8, which represents the drug delivery to different portions of the entire respiratory tract using a stand-alone MDI actuator, for example actuator 500, discussed above.
As described above, the disclosed MDI actuator nozzles may include an inner diameter that is optimized to dispense fine API particle sizes, such as API particles having a diameter of about 1.1 μm or less. Table 12, below, outlines a study of the amount percentage (%) of fine API particles having particle diameters of less than about 1.1 μm versus nozzle inner diameter size of the disclosed MDI actuators, for example MDI actuator 500. […] The general components of MDI actuator 500 was utilized, but different nozzle inner diameter sizes were tested in this study. In particular, 3 different MDI actuators were tested: (1) MDI actuator having 0.42 mm nozzle inner diameter (“MDI Actuator A”), (2) MDI actuator having 0.28 mm nozzle inner diameter (“MDI Actuator B”), and (3) MDI actuator having 0.20 mm nozzle inner diameter (“MDI Actuator C”).

[5] = human, in vivo, po; cited from earlier work

CCN(CCO)CCCC(C)Nc1ccnc2cc(Cl)ccc12 (stereo not shown) [HCQ, hydroxychloroquine]
estimated concentration of HCQ in alveolar fluid ([1]; after administration of HCQ by inhalation): up to 22 μM
estimated concentration of HCQ in alveolar fluid ([1]; oral tablets, Day-1 (800 mg dose, after 2nd 400 mg dose)): 0.45 µM
estimated concentration of HCQ in alveolar fluid ([1]; oral tablets, Day-1 after the 1st 400 mg dose): 0.23 µM
estimated concentration of HCQ in alveolar fluid ([1]; oral tablets, Day-2): 0.67 µM
estimated concentration of HCQ in alveolar fluid ([1]; oral tablets, Day-5 (total dose of 2,400 mg)): 1.3 µM
appearance of mice during and after treatment [2]: appeared healthy, with no signs of distress
Delivery Rate ([3]; Alveoli, <1.1 mcm, in-Linc Tube (15 cm), HCQB-c, connection w/o inner channel, 200 mcg (#6)): 34.2%
Delivery Rate ([3]; Alveoli, <1.1 mcm, in-Line Tube (15 cm), HCQB-a, connection w/o inner channel, 200 mcg): 32.2%
Delivery Rate ([3]; Alveoli, <1.1 mcm, in-Line Tube (15 cm), HCQB-b, connection w/o inner channel, 200 mcg): 31.3%
Delivery Rate ([3]; Alveoli, <1.1 mcm, in-Line Tube (15 cm), HCQB-c, connection w/o inner channel, 200 mcg (#4)): 43.3%
Delivery Rate ([3]; Alveoli, <1.1 mcm, in-Line Tube (15 cm), HCQB-d, connection w/o inner channel, Ave, 200 mcg): 36.9%
Delivery Rate ([3]; Alveoli, <1.1 mcm, in-Line Tube (15 cm), HCQB-f, connection w/o inner channel, 200 mcg): 23.2%
Delivery Rate ([3]; Alveoli, <1.1 mcm, in-Line Tube (15 cm), HCQB-g, connection w/inner channel, 200 mcg): 34.0%
Delivery Rate ([3]; Alveoli, <1.1 mcm, in-Line Tube (15 cm), HCQB-g, connection w/o inner channel, 200 mcg): 31.5%
Delivery Rate ([3]; Alveoli, <1.1 mcm, in-Line Tube (15 cm), HCQB-h, connection w/ inner channel, 200 mcg): 35.9%
Delivery Rate ([3]; Alveoli, <1.1 mcm, in-Line Tube (15 cm), HCQB-h, connection w/o inner channel, 200 mcg): 31.1%
Delivery Rate ([3]; Alveoli, <1.1 mcm, in-Line Tube (15 cm), HCQB-i, connection w/inner channel, 200 mcg): 27.5%
Delivery Rate ([3]; Alveoli, <1.1 mcm, in-Line Tube (15 cm), HCQB-i, connection w/o inner channel, 200 mcg): 37.9%
Delivery Rate ([3]; Alveoli, <1.1 mcm, in-Line Tube (15 cm), HCQB-j, connection w/o inner channel, 200 mcg): 29.1%
Delivery Rate ([3]; Alveoli, <1.1 mcm, in-Line Tube (55 cm), HCQB-a, connection w/inner channel, 200 mcg): 19.3%
Delivery Rate ([3]; Alveoli, <1.1 mcm, in-Line Tube (55 cm), HCQB-b, connection w/inner channel, 200 mcg): 26.9%
Delivery Rate ([3]; Alveoli, <1.1 mcm, in-Line Tube (55 cm), HCQB-c, connection w/inner channel, Ave, 200 mcg): 37.9%
Delivery Rate ([3]; Alveoli, <1.1 mcm, in-Line Tube (55 cm), HCQB-d, connection w/inner channel, 200 mcg): 26.4%
Delivery Rate ([3]; Alveoli, <1.1 mcm, in-Line Tube (55 cm), HCQB-f, connection w/inner channel, Ave, 200 mcg): 34.7%
Delivery Rate ([3]; Alveoli, <1.1 mcm, in-Line Tube (55 cm), HCQB-j, connection w/ inner channel, 200 mcg): 30.3%
Delivered <1.1 mcm ([3]; Alveoli, in-Linc Tube (15 cm), HCQB-c, connection w/o inner channel, 200 mcg (#6)): 68.4
Delivered <1.1 mcm ([3]; Alveoli, in-Line Tube (15 cm), HCQB-a, connection w/o inner channel, 200 mcg): 64.4
Delivered <1.1 mcm ([3]; Alveoli, in-Line Tube (15 cm), HCQB-b, connection w/o inner channel, 200 mcg): 62.6
Delivered <1.1 mcm ([3]; Alveoli, in-Line Tube (15 cm), HCQB-c, connection w/o inner channel, 200 mcg (#4)): 86.6
Delivered <1.1 mcm ([3]; Alveoli, in-Line Tube (15 cm), HCQB-d, connection w/o inner channel, Ave, 200 mcg): 73.8
Delivered <1.1 mcm ([3]; Alveoli, in-Line Tube (15 cm), HCQB-f, connection w/o inner channel, 200 mcg): 46.3
Delivered <1.1 mcm ([3]; Alveoli, in-Line Tube (15 cm), HCQB-g, connection w/inner channel, 200 mcg): 68.0
Delivered <1.1 mcm ([3]; Alveoli, in-Line Tube (15 cm), HCQB-g, connection w/o inner channel, 200 mcg): 63.0
Delivered <1.1 mcm ([3]; Alveoli, in-Line Tube (15 cm), HCQB-h, connection w/ inner channel, 200 mcg): 71.7
Delivered <1.1 mcm ([3]; Alveoli, in-Line Tube (15 cm), HCQB-h, connection w/o inner channel, 200 mcg): 62.1
Delivered <1.1 mcm ([3]; Alveoli, in-Line Tube (15 cm), HCQB-i, connection w/inner channel, 200 mcg): 55.0
Delivered <1.1 mcm ([3]; Alveoli, in-Line Tube (15 cm), HCQB-i, connection w/o inner channel, 200 mcg): 75.7
Delivered <1.1 mcm ([3]; Alveoli, in-Line Tube (15 cm), HCQB-j, connection w/o inner channel, 200 mcg): 58.1
Delivered <1.1 mcm ([3]; Alveoli, in-Line Tube (55 cm), HCQB-a, connection w/inner channel, 200 mcg): 38.5
Delivered <1.1 mcm ([3]; Alveoli, in-Line Tube (55 cm), HCQB-b, connection w/inner channel, 200 mcg): 53.8
Delivered <1.1 mcm ([3]; Alveoli, in-Line Tube (55 cm), HCQB-c, connection w/inner channel, Ave, 200 mcg): 75.8
Delivered <1.1 mcm ([3]; Alveoli, in-Line Tube (55 cm), HCQB-d, connection w/inner channel, 200 mcg): 52.8
Delivered <1.1 mcm ([3]; Alveoli, in-Line Tube (55 cm), HCQB-f, connection w/inner channel, Ave, 200 mcg): 69.4
Delivered <1.1 mcm ([3]; Alveoli, in-Line Tube (55 cm), HCQB-j, connection w/ inner channel, 200 mcg): 60.5
Delivery Rate ([3]; Plate 3~5, <4.7 mcm, in-Line Tube (15 cm), HCQB-g, connection w/inner channel, 200 mcg): 30.5%
Delivery Rate ([3]; Plate 3~5, <4.7 mcm, in-Line Tube (15 cm), HCQB-h, connection w/inner channel, 200 mcg): 25.8%
Delivery Rate ([3]; Plate 3~5, <4.7 mcm, in-Line Tube (15 cm), HCQB-i, connection w/inner channel, 200 mcg): 22.8%
Delivery Rate ([3]; Plate 3~5, <4.7 mcm, in-Line Tube (55 cm), HCQB-a, connection w/inner channel, 200 mcg): 13.3%
Delivery Rate ([3]; Plate 3~5, <4.7 mcm, in-Line Tube (55 cm), HCQB-b, connection w/inner channel, 200 mcg): 21.3%
Delivery Rate ([3]; Plate 3~5, <4.7 mcm, in-Line Tube (55 cm), HCQB-c, connection w/inner channel, 200 mcg): 29.0%
Delivery Rate ([3]; Plate 3~5, <4.7 mcm, in-Line Tube (55 cm), HCQB-d, connection w/inner channel, 200 mcg): 23.3%
Delivery Rate ([3]; Plate 3~5, <4.7 mcm, in-Line Tube (55 cm), HCQB-e, connection w/inner channel, 200 mcg): 29.0%
Delivery Rate ([3]; Plate 3~5, <4.7 mcm, in-Line Tube (55 cm), HCQB-f, connection w/inner channel, 200 mcg): 28.3%
Delivery Rate ([3]; Plate 3~5, <4.7 mcm, in-Line Tube (55 cm), HCQB-j, connection w/inner channel, 200 mcg): 20.0%
Delivered <4.7 mcm ([3]; in-Line Tube (15 cm), HCQB-g, connection w/inner channel, 200 mcg): 60.9
Delivered <4.7 mcm ([3]; in-Line Tube (15 cm), HCQB-h, connection w/inner channel, 200 mcg): 51.6
Delivered <4.7 mcm ([3]; in-Line Tube (15 cm), HCQB-i, connection w/inner channel, 200 mcg): 45.5
Delivered <4.7 mcm ([3]; in-Line Tube (55 cm), HCQB-a, connection w/inner channel, 200 mcg): 26.5
Delivered <4.7 mcm ([3]; in-Line Tube (55 cm), HCQB-b, connection w/inner channel, 200 mcg): 42.6
Delivered <4.7 mcm ([3]; in-Line Tube (55 cm), HCQB-c, connection w/inner channel, 200 mcg): 57.9
Delivered <4.7 mcm ([3]; in-Line Tube (55 cm), HCQB-d, connection w/inner channel, 200 mcg): 46.6
Delivered <4.7 mcm ([3]; in-Line Tube (55 cm), HCQB-e, connection w/inner channel, 200 mcg): 57.9
Delivered <4.7 mcm ([3]; in-Line Tube (55 cm), HCQB-f, connection w/inner channel, 200 mcg): 56.5
Delivered <4.7 mcm ([3]; in-Line Tube (55 cm), HCQB-j, connection w/inner channel, 200 mcg): 39.9
EPM (6-filter; P6-F, <1.1 μm for Alveoli), Compared to strength (delivery rate) ([4]; Actuator A (nozzle 0.42 mm)): 21.6%
EPM (6-filter; P6-F, <1.1 μm for Alveoli), Compared to strength (delivery rate) ([4]; Actuator B (nozzle 0.28 mm)): 39.7%
EPM (6-filter; P6-F, <1.1 μm for Alveoli), Compared to strength (delivery rate) ([4]; Actuator C (nozzle 0.20 mm)): about 53.9%
Delivery Rate ([4]; Alveoli, <1.1 mcm, actuator O-0.20, 5% EtOH, 200 mcg): 44.5%
Delivery Rate ([4]; Alveoli, <1.1 mcm, actuator O-0.20, 5% EtOH, 200 mcg (Table 21)): 44.5%
Delivered <1.1 mcm ([4]; Alveoli, actuator O-0.20, 5% EtOH, 200 mcg): 89
Delivered <1.1 mcm ([4]; Alveoli, actuator O-0.20, 5% EtOH, 200 mcg (Table 21)): 89
Delivery Rate ([4]; Plate 3~5, <4.7 mcm, actuator O-0.20, 5% EtOH, 200 mcg): 50.7%
Delivered <4.7 mcm ([4]; Plate 3~5, actuator O-0.20, 5% EtOH, 200 mcg): 101.3
BA [5]: 74%
share of tablet dose distributed to red blood cells or other protein in blood [5]: approximately 0.25%
share of tablet dose not absorbed or initially metabolized in liver [5]: approximately 26%
